Experimental data reported in publication PMC8708424, “Pharmacologically Targeting the Fibroblast Growth Factor 14 Interaction Site on the Voltage-Gated Na^+ Channel 1.6 Enables Isoform-Selective Modulation” (International Journal of Molecular Sciences, 2021).
Where a SMILES comes first, the peptide text is derived from it. The star is where a group is joined. Fmoc = O=C(OCC1c2ccccc2-c2ccccc21)*; tBu = CC(C)(C)*

Biological target: T1, voltage-gated Na+ channel 1.6 (Nav1.6) (Homo sapiens, UniProt Q9UQD0)
T1 construct: gene SCN8A; hNav1.6 channel stably expressed in HEK293 cells
Experiment: whole-cell voltage-clamp electrophysiology in HEK-Nav1.[…] cells, peak transient INa dose-response
Assay type: cell-based

T1 sequence (Q9UQD0 whole entry): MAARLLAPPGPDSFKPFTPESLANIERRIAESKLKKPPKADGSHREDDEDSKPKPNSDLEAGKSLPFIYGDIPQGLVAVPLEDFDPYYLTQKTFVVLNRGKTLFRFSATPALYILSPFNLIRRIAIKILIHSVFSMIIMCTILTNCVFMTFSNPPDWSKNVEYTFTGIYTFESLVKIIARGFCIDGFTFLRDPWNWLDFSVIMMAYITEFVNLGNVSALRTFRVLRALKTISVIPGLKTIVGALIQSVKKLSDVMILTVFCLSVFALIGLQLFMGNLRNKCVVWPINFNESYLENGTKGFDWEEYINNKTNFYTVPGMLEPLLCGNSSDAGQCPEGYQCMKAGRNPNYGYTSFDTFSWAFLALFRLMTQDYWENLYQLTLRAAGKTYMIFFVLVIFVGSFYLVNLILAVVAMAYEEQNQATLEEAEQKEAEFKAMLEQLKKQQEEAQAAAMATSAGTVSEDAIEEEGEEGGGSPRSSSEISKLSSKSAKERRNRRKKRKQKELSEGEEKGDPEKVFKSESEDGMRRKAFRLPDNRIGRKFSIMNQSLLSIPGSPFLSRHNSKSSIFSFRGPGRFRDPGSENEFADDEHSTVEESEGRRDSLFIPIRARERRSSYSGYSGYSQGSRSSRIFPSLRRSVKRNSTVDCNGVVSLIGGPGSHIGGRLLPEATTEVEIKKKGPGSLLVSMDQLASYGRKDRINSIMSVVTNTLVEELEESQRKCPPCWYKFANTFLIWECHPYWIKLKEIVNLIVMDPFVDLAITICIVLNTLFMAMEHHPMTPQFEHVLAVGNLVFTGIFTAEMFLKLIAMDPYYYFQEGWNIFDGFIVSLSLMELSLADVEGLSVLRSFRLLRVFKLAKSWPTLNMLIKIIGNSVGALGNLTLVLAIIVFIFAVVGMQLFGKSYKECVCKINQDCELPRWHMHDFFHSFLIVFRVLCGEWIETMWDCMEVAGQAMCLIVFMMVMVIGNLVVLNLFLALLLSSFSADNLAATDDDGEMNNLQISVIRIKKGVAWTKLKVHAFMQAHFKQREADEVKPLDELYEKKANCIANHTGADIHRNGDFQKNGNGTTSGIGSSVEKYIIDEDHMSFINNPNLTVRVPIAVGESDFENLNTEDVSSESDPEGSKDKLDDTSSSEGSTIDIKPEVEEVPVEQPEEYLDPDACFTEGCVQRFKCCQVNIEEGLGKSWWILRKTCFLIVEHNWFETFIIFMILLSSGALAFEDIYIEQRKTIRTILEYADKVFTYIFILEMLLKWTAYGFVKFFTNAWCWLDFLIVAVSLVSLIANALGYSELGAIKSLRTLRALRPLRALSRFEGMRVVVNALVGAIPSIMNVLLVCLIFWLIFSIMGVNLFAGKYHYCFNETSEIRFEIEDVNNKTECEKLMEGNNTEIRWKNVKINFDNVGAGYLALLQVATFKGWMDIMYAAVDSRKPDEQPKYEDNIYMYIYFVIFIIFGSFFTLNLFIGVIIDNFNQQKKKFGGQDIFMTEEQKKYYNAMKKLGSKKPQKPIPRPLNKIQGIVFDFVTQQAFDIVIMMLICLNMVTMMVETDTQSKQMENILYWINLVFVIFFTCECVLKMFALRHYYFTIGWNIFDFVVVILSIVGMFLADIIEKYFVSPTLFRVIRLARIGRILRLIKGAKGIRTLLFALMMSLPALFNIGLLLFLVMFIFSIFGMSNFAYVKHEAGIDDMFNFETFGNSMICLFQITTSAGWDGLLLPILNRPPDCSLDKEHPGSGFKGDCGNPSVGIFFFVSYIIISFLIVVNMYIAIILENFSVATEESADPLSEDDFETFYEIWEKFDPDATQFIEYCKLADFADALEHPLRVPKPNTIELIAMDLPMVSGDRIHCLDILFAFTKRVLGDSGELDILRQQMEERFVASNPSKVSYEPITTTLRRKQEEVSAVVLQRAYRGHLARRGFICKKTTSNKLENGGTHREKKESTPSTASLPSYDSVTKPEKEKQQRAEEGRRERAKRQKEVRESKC

CC(C)[C@H](NC(=O)[C@H](Cc1ccc(OC(C)(C)C)cc1)NC(=O)[C@H](Cc1ccc(OC(C)(C)C)cc1)NC(=O)OCC1c2ccccc2-c2ccccc21)C(N)=O [PW201] (Fmoc-Tyr(tBu)-Tyr(tBu)-Val-NH2) showed an IC50 of 15.1 µM.
